Data from patent US12162863B2, “Modulators of stimulator of interferon genes (STING)” (RYVU THERAPEUTICS S.A., priority 2018, dated 2024).

Assays:
human STING = human STING (Homo sapiens, UniProt Q86WV6); assay: Fluorescence Thermal Shift assay; type: binding; details: 50 μM compound; STING 0.1 mg/ml; 20 minutes preincubation; read-out: [hSTING] FTS, ΔTm [° C.] for 50 μM
Protocol: Fluorescence Thermal Shift Assay Compounds of the present invention were tested for binding to human STING in Fluorescence Thermal Shift assay. STING was preincubated with the compounds for 20 minutes in 50 mM Hepes, 150 mM NaCl, pH 7.5 in 16 μl volume, following by adding 4 μl of SyproOrange dye dilution (ThermoFisher, cat no. S-6651). Final STING concentration was 0.1 mg/ml. Thermal unfolding was performed in Real-Time PCR QuantStudio 6 Flex System (Applied Biosystems), from 25 to 99° C., with continuous ramp mode and ramp rate 0.033° C./s. The data were analyzed using Protein Thermal Shift Software (ThermoFisher). […] For example, ΔTm [° C.] of FTS assay for following examples are: […]

[1] = test system: interferon regulatory factor (IRF) pathway in THP-1 dual cells; assay: THP-1 Dual Reporter Assay, IRF pathway (luciferase reporter); type: cell-based; details: Homo sapiens, THP1-Dual, 18 h of stimulation, luminescence
Protocol: (§1) THP-1 Dual Reporter Assay
(§2) Compounds of the present invention were tested for their activity using THP-1 dual cells (Invivogen, cat no. thpd-nfis) allowing for simultaneous study of NF-κB pathway and the interferon regulatory factor (IRF) pathway. THP-1 dual cells contain luciferase reporter gene under the control of an ISG54 (interferon-stimulated gene) minimal promoter in conjunction with five interferon-stimulated response elements and a secreted embryonic alkaline phosphatase reporter gene under the control an IFN (interferon)-β minimal promoter fused to five copies of the NF-κB consensus transcriptional response element with three copies of the c-Rel binding site. Following 18 h of stimulation with STING agonist, medium was collected and transferred onto fresh cell culture plate. To verify activity of the IRF pathway, luminescence activity was measured with standard laboratory plate reader immediately after addition 10 μl of the medium to 50 μl of luminescence reagent (Invivogen, cat. No. rep-qlc2). To verify activity of NF-κB pathway, 20 μl of the medium was mixed with 80 μl of a detection medium (Invivogen, cat. No. rep-qb2) and incubated for 2 hours at 37° C. in a humidified atmosphere containing 5% CO2. Next, absorbance at 630 nm was recorded using standard laboratory plate reader.

[2] = test system: NF-κB pathway in THP-1 dual cells; assay: THP-1 Dual Reporter Assay, NF-κB pathway (SEAP reporter); type: cell-based; details: Homo sapiens, THP1-Dual, 18 h of stimulation, absorbance at 630 nm, read-out: THP1 Dual EC50 (μM) NFkB
Protocol: as §1, §2

Chain of human STING (Q86WV6 whole entry H232R): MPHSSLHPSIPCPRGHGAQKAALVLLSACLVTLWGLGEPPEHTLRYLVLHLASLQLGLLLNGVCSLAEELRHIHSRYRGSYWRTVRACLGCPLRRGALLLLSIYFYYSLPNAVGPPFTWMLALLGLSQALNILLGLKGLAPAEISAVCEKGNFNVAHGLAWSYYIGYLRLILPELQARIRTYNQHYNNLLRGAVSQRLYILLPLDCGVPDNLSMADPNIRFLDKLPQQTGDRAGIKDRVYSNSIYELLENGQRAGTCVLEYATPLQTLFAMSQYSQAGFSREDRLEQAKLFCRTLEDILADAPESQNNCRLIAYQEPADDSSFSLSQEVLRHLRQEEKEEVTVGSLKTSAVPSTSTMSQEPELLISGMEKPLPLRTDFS

Row | SMILES | ΔTm at 50 µM (human STING) [°C] | EC50 [1] [µM] | EC50 [2] [µM]
1 | O=c1c(CN(CCCc2cccnc2)Cc2ccncc2)coc2c1cc(F)c1ccccc12 [Example 54, 6-fluoro-3-({[3-(pyridin-3-yl)propyl][(pyridin-4-yl)methyl]amino}methyl)-4H benzo[h]chromen-4-one] | > 2.5 | ≤ 10 | ≤ 10
2 | Cc1ccc2c(=O)c(CN(CCCc3cccnc3)Cc3ccncc3)c(C)oc2c1C [Example 55, 2,7,8-trimethyl-3-({[3-(pyridin-3-yl)propyl][(pyridin-4-yl)methyl]amino}methyl)-4H-chromen-4-one] | > 2.5 | ≤ 10 | ≤ 10
3 | CN(C)c1ccc(CCCN(Cc2ccncc2)Cc2coc3c(ccc4ccccc43)c2=O)cn1 [Example 60, 3-[({3-[6-(dimethylamino)pyridin-3-yl]propyl}[(pyridin-4-yl)methyl]amino)methyl]-4H-benzo[h]chromen-4-one] | < 2.5 | ≥ 20 | ≥ 20
4 | Cc1oc2cc(Br)c(F)cc2c(=O)c1CN(CCCc1cccnc1)Cc1ccncc1 [Example 63, 7-bromo-6-fluoro-2-methyl-3-({[3-(pyridin-3-yl)propyl][(pyridin-4-yl)methyl]amino}methyl)-4H-chromen-4-one] | > 2.5 | ≤ 10 | ≤ 10
5 | Cc1oc2cc(N3CCN(C)CC3)c(F)cc2c(=O)c1CN(CCCc1cccnc1)Cc1ccncc1 [Example 65, 6-fluoro-2-methyl-7-(4-methylpiperazin-1-yl)-3-({[3-(pyridin-3-yl)propyl][(pyridin-4-yl)methyl]amino}methyl)-4-chromen-4-one] | > 2.5 | ≤ 10 | ≤ 10
6 | COc1ccc(CCCN(Cc2ccncc2)Cc2c(C)oc3c(C)c(C)ccc3c2=O)cn1 [Example 66, 3-({[3-(6-methoxypyridin-3-yl)propyl](pyridin-4-ylmethyl)amino}methyl)-2,7,8-trimethyl-4H-chromen-4-one] | < 2.5 | ≤ 10 | ≤ 10
7 | Cc1oc2c(ccc3ccccc32)c(=O)c1CN(CCCn1ccnc1)Cc1ccncc1 [Example 67, 3-({[3-(1H-imidazol-1-yl)propyl][(pyridin-4-yl)methyl]amino}methyl)-2-methyl-4H-benzo[h]chromen-4-one] | > 2.5 | ≤ 10 | ≤ 10
8 | O=c1c(CN(CCCn2cnc3ncccc32)Cc2ccncc2)coc2c1ccc1ccccc12 [Example 68, 3-{[(3-{1H-imidazo[4,5-b]pyridin-1-yl}propyl)(pyridin-4-ylmethyl)amino]methyl}-4H-benzo[h]chromen-4-one] | > 2.5 | ≤ 10 | ≤ 10
9 | Cc1oc2cc(N3CCNCC3)c(F)cc2c(=O)c1CN(CCCc1cccnc1)Cc1ccncc1 [Example 69, 6-fluoro-2-methyl-7-(piperazin-1-yl)-3-({[3-(pyridin-3-yl)propyl][(pyridin-4-yl)methyl]amino}methyl)-4H-chromen-4-one] | > 2.5 | ≤ 10 | ≤ 10
10 | O=c1c(CN(CCCn2ccnc2)Cc2ccncc2)coc2cc(-c3cc[nH]n3)ccc12 [Example 71, 3-({[3-(1H-imidazol-1-yl)propyl](pyridin-4-ylmethyl)amino}methyl)-7-(1H-pyrazol-3-yl)-4H-chromen-4-one] | > 2.5 | ≤ 10 | 10 to 20
11 | CC(CCn1cnc2ccccc21)N(Cc1ccncc1)Cc1coc2c(ccc3ccccc32)c1=O (stereo not drawn) [Example 72, 3-({[4-(1H-1,3-benzodiazol-1-yl)butan-2-yl](pyridin-4-ylmethyl)amino}methyl)-4H-benzo[h]chromen-4-one] | < 2.5 | ≤ 10 | ≤ 10
12 | Cc1oc2cc(Br)c(F)cc2c(=O)c1CN(CCCn1cnc2cncnc21)Cc1ccncc1 [Example 73, 7-bromo-6-fluoro-2-methyl-3-({[3-(9H-purin-9-yl)propyl][(pyridin-4-yl)methyl]amino}methyl)-4H-chromen-4-one] | > 2.5 | 10 to 20 | ≤ 10
13 | Cc1ccc2c(=O)c(CN(CCCn3cnc4c(=O)[nH]cnc43)Cc3ccncc3)c(C)oc2c1C [Example 75, 9-(3-{[(pyridin-4-yl)methyl][(2,7,8-trimethyl-4-oxo-4H-chromen-3-yl)methyl]amino}propyl)-6,9-dihydro-1H-purin-6-one] | > 2.5 | ≤ 10 | 10 to 20
14 | COc1cc2ncn(CCCN(Cc3ccncc3)Cc3coc4c(ccc5ccccc54)c3=O)c2cc1OC [Example 76, 3-({[3-(5,6-dimethoxy-1H-1,3-benzodiazol-1-yl)propyl](pyridin-4-ylmethyl)amino}methyl)-4H-benzo[h]chromen-4-one] | > 2.5 | ≤ 10 | ≤ 10

Next, values leading:

Row | ΔTm at 50 µM (human STING) [°C] | EC50 [1] [µM] | EC50 [2] [µM] | SMILES
15 | > 2.5 | ≤ 10 | ≤ 10 | COc1ccc2ccc3c(=O)c(CN(CCCc4cccnc4)Cc4ccncc4)coc3c2c1 [Example 52, 9-methoxy-3-({[3-(pyridin-3-yl)propyl][(pyridin-4-yl)methyl]amino}methyl)-4H-benzo[h]chromen-4-one]
16 | > 2.5 | ≤ 10 | ≤ 10 | COc1cc(CN(CCCn2cnc3ccccc32)Cc2coc3c(ccc4ccccc43)c2=O)ccn1 [Example 53, 3-({[3-(1H-1,3-benzodiazol-1-yl)propyl][(2-methoxypyridin-4-yl)methyl]amino}methyl)-4H-benzo[h]chromen-4-one]
17 | > 2.5 | ≤ 10 | ≤ 10 | COc1ccc(-c2ccc3c(=O)c(CN(CCCn4ccnc4)Cc4ccncc4)c(C)oc3c2)cc1 [Example 56, 3-({[3-(1H-imidazol-1-yl)propyl][(pyridin-4-yl)methyl]amino}methyl)-7-(4-methoxyphenyl)-2-methyl-4H-chromen-4-one]
18 | > 2.5 | ≥ 20 | ≥ 20 | COc1cccc(-c2cc3occ(CN(CCCn4ccnc4)Cc4ccncc4)c(=O)c3cc2F)c1 [Example 57, 6-fluoro-3-({[3-(1H-imidazol-1-yl)propyl][(pyridin-4-yl)methyl]amino}methyl)-7-(3-methoxyphenyl)-4H-chromen-4-one]
19 | > 2.5 | ≤ 10 | ≤ 10 | CN1CCN(c2cc3occ(CN(CCCc4cccnc4)Cc4ccncc4)c(=O)c3cc2F)CC1 [Example 58, 6-fluoro-7-(4-methylpiperazin-1-yl)-3-({[3-(pyridin-3-yl)propyl](pyridin-4-ylmethyl)amino}methyl)-4H-chromen-4-one]
20 | < 2.5 | ≤ 10 | ≤ 10 | O=c1c(CN(CCCn2ccccc2=O)Cc2ccncc2)coc2c1ccc1ccccc12 [Example 59, 1-{3-[({4-oxo-4H-benzo[h]chromen-3-yl}methyl)[(pyridin-4-yl)methyl]amino]propyl}-1,2-dihydropyridin-2-one]
21 | < 2.5 | ≥ 20 | ≥ 20 | O=c1c(CN(CCCc2cncc3ccccc23)Cc2ccncc2)coc2c1ccc1ccccc12 [Example 61, 3-({[3-(isoquinolin-4-yl)propyl][(pyridin-4-yl)methyl]amino}methyl)-4H-benzo[h]chromen-4-one]
22 | > 2.5 | ≤ 10 | ≤ 10 | COc1ccc2ccc3c(=O)c(CN(CCCn4cnc5ccccc54)Cc4ccncc4)coc3c2c1 [Example 62, 3-({[3-(1H-1,3-benzodiazol-1-yl)propyl][(pyridin-4-yl)methyl]amino}methyl)-9-methoxy-4H-benzo[h]chromen-4-one]
23 | > 2.5 | ≤ 10 | ≤ 10 | Cc1oc2cc(Br)ccc2c(=O)c1CN(CCCc1cccnc1)Cc1ccncc1 [Example 64, 7-bromo-2-methyl-3-({[3-(pyridin-3-yl)propyl](pyridin-4-ylmethyl)amino}methyl)-4H-chromen-4-one]
24 | > 2.5 | ≤ 10 | ≤ 10 | Cc1oc2cc(N3CCOCC3)c(F)cc2c(=O)c1CN(CCCc1cccnc1)Cc1ccncc1 [Example 70, 6-fluoro-2-methyl-7-(morpholin-4-yl)-3-({[3-(pyridin-3-yl)propyl][(pyridin-4-yl)methyl]amino}methyl)-4H-chromen-4-one]
25 | < 2.5 | ≥ 20 | ≥ 20 | O=c1c(CN(CCCn2ccnc2)Cc2ccncc2)c[nH]c2ccccc12 [Example 74, 3-({[3-(1H-imidazol-1-yl)propyl][(pyridin-4-yl)methyl]amino}methyl)-1,4-dihydroquinolin-4-one]
